Results published in patent US5391486A, “Physiologically active substance BE-16627” (Banyu Pharmaceutical Co., Ltd., priority 1989, dated 1995).

How the values were obtained:
Collagenase = Collagenase inhibition in vitro (substrate A: 3H casein); assay type: biochemical; conditions: Chlostridium histriticum
Description: (§1) An inhibitory activity of BE-16627A and B to various proteases including stromelysin and collagenase was determined by an in-vitro test. As stromelysin (human), prostromelysin prepared by genetic engineering (Celltech., GB) was used by treating it with trypsin (10 μg/ml) at 37° C. for 10 minutes and inhibiting a residual trypsin activity with soybean trypsin inhibitor (50 μg/ml).
(§2) Substrate A: ^3 Hcasein

Chymotrypsin = Chymotrypsin (Bos taurus, UniProt P00766); experiment: Chymotrypsin inhibition in vitro (substrate A: 3H casein); assay type: biochemical; conditions: bovine
Description: as §1, §2

Thermolysin = Thermolysin (Bacillus thermoproteolyticus, UniProt P00800); experiment: Thermolysin inhibition in vitro (substrate A: 3H casein); assay type: biochemical, Bacillus thermo-proteolyticus
Description: as §1, §2

Stromelysin = target: T1, Stromelysin (Homo sapiens, UniProt P08254); experiment: Stromelysin inhibition in vitro (substrate A: 3H casein); assay type: biochemical, Human (Recombinant); conditions: for inhibition of stromelysin (human) relative to other enzymes: in words, from Table 1, next collagenase and thermolysin; for IC50: stromelysin, human recombinant, substrate A (3H casein)
T1 construct: prostromelysin prepared by genetic engineering (Celltech., GB) was used by treating it with trypsin; purchased Celltech., GB
Description: As stromelysin (human), prostromelysin prepared by genetic engineering (Celltech., GB) was used by treating it with trypsin (10 μg/ml) at 37° C. for 10 minutes and inhibiting a residual trypsin activity with soybean trypsin inhibitor (50 μg/ml).
as §2

Elastase = Elastase (Sus scrofa, UniProt P00772); experiment: Elastase inhibition in vitro (substrate B: Succinylalanyl-prolyl-alanyl-methylcumarylamide); assay type: biochemical; conditions: porcine
Description: as §1
Substrate B: Succinylalanyl-prolyl-alanyl-methylcumarylamide

metal enzymes = experiment: Inhibitory activity to various proteases (metal enzymes versus others); assay type: biochemical; conditions: in words, from Table 1
Description: as §1

Trypsin = target: T2, Trypsin (Bos taurus, UniProt P00760); experiment: Trypsin inhibition in vitro (substrate A: 3H casein); assay type: biochemical; conditions: bovine
T2 sequence (P00760 24-246): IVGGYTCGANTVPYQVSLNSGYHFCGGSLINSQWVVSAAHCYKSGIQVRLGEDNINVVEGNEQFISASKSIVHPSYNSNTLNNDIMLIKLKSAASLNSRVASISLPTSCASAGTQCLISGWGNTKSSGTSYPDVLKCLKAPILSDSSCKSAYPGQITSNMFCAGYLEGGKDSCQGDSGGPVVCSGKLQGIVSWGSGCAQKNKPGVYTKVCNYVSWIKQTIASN
Description: as §1, §2

Pepsin = Pepsin (Sus scrofa, UniProt P00791); experiment: Pepsin inhibition in vitro (substrate A: 3H casein); assay type: biochemical; conditions: porcine
Description: as §1, §2

Papain = target: T3, Papain (Carica papaya, UniProt P00784); experiment: Papain inhibition in vitro (substrate A: 3H casein); assay type: biochemical; conditions: papaya latex
T3 construct: from tissue; host or cells: Papaya latex
T3 sequence (P00784 134-345): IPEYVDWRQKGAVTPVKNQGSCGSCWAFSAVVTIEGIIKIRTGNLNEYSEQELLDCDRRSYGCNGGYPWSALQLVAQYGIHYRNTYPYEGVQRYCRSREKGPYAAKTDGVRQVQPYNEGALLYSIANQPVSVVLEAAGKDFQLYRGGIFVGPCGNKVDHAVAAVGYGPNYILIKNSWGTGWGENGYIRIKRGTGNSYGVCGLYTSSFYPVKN
Description: as §1, §2

Solubility = assay type: physicochemical
[1] = test system: mouse cultured cancer cells (P388); experiment: cells; assay type: cell-based
[2] = in an organic solvent such as chloroform, ethyl acetate, benzene, hexane and the like

T1 sequence (P08254 100-477): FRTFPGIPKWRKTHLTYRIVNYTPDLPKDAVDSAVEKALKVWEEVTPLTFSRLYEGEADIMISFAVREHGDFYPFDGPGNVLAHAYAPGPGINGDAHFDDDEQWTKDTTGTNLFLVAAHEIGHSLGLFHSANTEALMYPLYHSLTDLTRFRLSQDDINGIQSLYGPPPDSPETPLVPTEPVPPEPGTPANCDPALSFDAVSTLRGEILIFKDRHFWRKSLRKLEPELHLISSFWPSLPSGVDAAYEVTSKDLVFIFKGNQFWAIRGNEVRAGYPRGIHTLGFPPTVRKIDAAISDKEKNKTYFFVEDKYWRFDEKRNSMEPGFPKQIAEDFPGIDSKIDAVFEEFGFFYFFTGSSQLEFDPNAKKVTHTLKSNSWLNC
Chain of Pepsin (P00791 60-385): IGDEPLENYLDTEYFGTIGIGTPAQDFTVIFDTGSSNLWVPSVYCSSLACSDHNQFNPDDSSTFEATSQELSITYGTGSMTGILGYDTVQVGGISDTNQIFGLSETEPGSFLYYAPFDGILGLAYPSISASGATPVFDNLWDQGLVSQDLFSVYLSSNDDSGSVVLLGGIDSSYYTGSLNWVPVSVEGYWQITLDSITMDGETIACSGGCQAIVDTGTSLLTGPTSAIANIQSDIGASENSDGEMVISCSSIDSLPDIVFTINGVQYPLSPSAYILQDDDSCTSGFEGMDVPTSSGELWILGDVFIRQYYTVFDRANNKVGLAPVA
Chain of Thermolysin (P00800 233-548): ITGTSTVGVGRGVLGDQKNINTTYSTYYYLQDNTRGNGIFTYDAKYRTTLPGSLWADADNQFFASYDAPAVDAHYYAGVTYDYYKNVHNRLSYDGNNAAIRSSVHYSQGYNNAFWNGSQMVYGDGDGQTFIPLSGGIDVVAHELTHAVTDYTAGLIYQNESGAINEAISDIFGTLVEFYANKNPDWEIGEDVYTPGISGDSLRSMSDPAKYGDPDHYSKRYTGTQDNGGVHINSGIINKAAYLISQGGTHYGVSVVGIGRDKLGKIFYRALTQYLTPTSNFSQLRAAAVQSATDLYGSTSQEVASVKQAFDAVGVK
Chain of Elastase (P00772 27-266): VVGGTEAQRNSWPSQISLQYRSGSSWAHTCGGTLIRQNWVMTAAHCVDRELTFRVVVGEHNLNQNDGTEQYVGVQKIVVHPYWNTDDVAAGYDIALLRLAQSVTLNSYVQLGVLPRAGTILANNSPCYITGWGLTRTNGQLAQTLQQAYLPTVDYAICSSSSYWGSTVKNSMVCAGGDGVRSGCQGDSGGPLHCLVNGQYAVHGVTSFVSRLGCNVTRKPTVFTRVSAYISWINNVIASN

Row | SMILES | IC50 (Collagenase) [µM] | IC50 (Chymotrypsin) [µM] | IC50 (Thermolysin) [µM] | inhibition of stromelysin (human) relative to other enzymes (Stromelysin) | IC50 (Stromelysin) [µM] | IC50 (Elastase) [µM] | inhibition of the activity of metal enzymes (metal enzymes) | IC50 (Trypsin) [µM] | IC50 (Pepsin) [µM] | IC50 (Papain) [µM] | Solubility (Solubility; in an alkaline water) | Solubility (Solubility; [2]) | cytotoxicity [1] | IC50 ([1]; Mus musculus, P388, read-out: IC50 value (cytotoxic test)) [µg/mL]
1 | CCCC(CC(=O)NO)C(=O)NC(CO)C(=O)NC(C(=O)O)C(C)C (stereo not drawn) [BE-16627A] | 11.6 | > 276 | 19.3 | most strongly inhibited | 5 | > 276 | specifically inhibited | > 276 | > 276 | 138 | readily soluble | almost insoluble | low cytotoxicity | ≥ 100
2 | CC(C)CC(CC(=O)NO)C(=O)NC(CO)C(=O)NC(C(=O)O)C(C)C (stereo not drawn) [BE-16627B] | 2.7 | > 266 | 2.4 | most strongly inhibited | 0.58 | > 266 | specifically inhibited | > 266 | > 266 | > 266 | readily soluble | almost insoluble | low cytotoxicity | 
